Consider one compound from publication PMC10018692 (ACS Omega, 2023).

Values after ≈ are worked out from the molar mass of the structure shown.

Data set [1] is described as follows: Drug solubility of free PTL and PTL-loaded nanoparticles. It counts as physicochemical. Conditions: phosphate buffer, pH 7.4.
Data set [2] in a line: Pharmacokinetic study in albino rats. In kind it is in vivo. Conditions: 10 mg/kg.

The term solubility denotes the dissolved amount per volume that the medium holds. What is called AUC(0-inf) is the area under the concentration-time curve extrapolated to infinity. A low value points to less exposure. Usually AUC(0-t) stands for the area under the concentration-time curve up to a stated or last time point. The low end stands for less exposure, the high end for more exposure. As a reminder, the Cmax is the maximum level reached in the sampled fluid or tissue. What is called Tmax is the time at which the peak concentration occurs. One may read the half-life as how long it takes for the measured level to halve. A lower half-life goes with rapid decline. With `CC(=O)O[C@H]1C(=O)[C@@]2(C)[C@H]([C@H](OC(=O)c3ccccc3)[C@]3(O)C[C@H](OC(=O)[C@H](O)[C@@H](NC(=O)c4ccccc4)c4ccccc4)C(C)=C1C3(C)C)[C@]1(OC(C)=O)CO[C@@H]1C[C@@H]2O` [PTL, Paclitaxel], the solubility at 24 h in data set [1] was ~4.5 µg/mL (≈ 5.27 µM). Besides, in data set [2] (rat, plasma, po), the AUC(0-inf) came out at 2980 ± 53.1 ng·h/mL, the AUC(0-t) was 2830 ± 56.8 ng·h/mL, the highest level (Cmax) was 239 ± 26.2 ng/mL and the Tmax came out at 2 ± 0.05 h. For the same compound, in data set [2] (rat, plasma, po), the half-life was 8.76 ± 1.1 h. In data set [2] (rats), this compound displayed a Kel of 0.072 ± 0.001. In data set [2] (rats, HPLC), the “plasma PTL concentration after 12 h” value is reported as “below the HPLC quantification limit”.
